± gives the standard deviation of the averaged measurements.
Key:
Assay in all cases: level (log10 ratio to DMSO vehicle control); higher = higher biomarker level / cell amount than vehicle control
[1] = compound: C=CC(F)(F)C(F)(F)C(F)(F)C(F)(F)C(F)(F)C(F)(F)C(F)(F)C(F)(F)C=C [1,8-Divinylperfluorooctane]; conditions: in DMSO
Protocol: (§1)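 BioMAP Diversity Plus panel of 12 human primary cell co-culture systems (3C, 4H, LPS, SAg, BT, BF4T, BE3C, CASM3C, HDF3CGF, KF3CT, MyoF, Mphg). Compounds were added 1 h before stimulation and left for 24 h (MyoF 48 h; BT 72 h for soluble read-outs or 6 d for IgG). Biomarkers were read by ELISA, cytotoxicity by SRB, PBMC viability and proliferation by Alamar Blue. Each well value was divided by the mean of 8 DMSO control wells on the same plate and log10 transformed; duplicate blinded samples were tested at 4 concentrations.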

Perfluoropentanoic acid = compound: O=C(O)C(F)(F)C(F)(F)C(F)(F)C(F)(F)F [Perfluoropentanoic acid]; conditions: in DMSO
Protocol: as §1

[2] = compound: O=C(O)C(F)(F)C(F)(F)C(F)(F)OC(F)(C(F)(F)F)C(F)(F)F [Perfluoro-4-isopropoxybutanoic acid]; conditions: in DMSO
Protocol: as §1

[3] = compound: O=C(O)C(F)(F)C(F)(F)C(F)F [4H-Perfluorobutanoic acid]; conditions: in DMSO
Protocol: as §1

Perfluoropropanoic acid = compound: O=C(O)C(F)(F)C(F)(F)F [Perfluoropropanoic acid]; conditions: in DMSO
Protocol: as §1

[4] = compound: O=C(O)C(F)(F)OC(F)(F)C(F)(F)OC(F)(F)C(=O)O [Perfluoro-3,6-dioxaoctane-1,8-dioic acid]; conditions: in DMSO
Protocol: as §1

[5] = compound: OCCCC(F)(F)C(F)(F)C(F)(F)C(F)(F)C(F)(F)C(F)(F)C(F)(F)F [7:3 Fluorotelomer alcohol]; conditions: 6700 nM; in DMSO
Protocol: as §1

Test System	level (log10) ([1]; 6700 nM)	level (log10) ([1]; 20000 nM)	level (log10) (Perfluoropentanoic acid; 6700 nM)	level (log10) (Perfluoropentanoic acid; 20000 nM)	level (log10) (Perfluoropentanoic acid; 60000 nM)	level (log10) ([2]; 6700 nM)	level (log10) ([2]; 20000 nM)	level (log10) ([2]; 60000 nM)	level (log10) ([3]; 6700 nM)	level (log10) ([3]; 20000 nM)	level (log10) ([3]; 60000 nM)	level (log10) (Perfluoropropanoic acid; 6700 nM)	level (log10) (Perfluoropropanoic acid; 20000 nM)	level (log10) (Perfluoropropanoic acid; 60000 nM)	level (log10) ([4]; 6700 nM)	level (log10) ([4]; 20000 nM)	level (log10) ([4]; 60000 nM)	level (log10) [5]
HDF3CGF:Collagen III	0.001 ± 0.024	-0.0125 ± 0.029	0.005 ± 0.014	0.01 ± 0.017	0.033 ± 0.034	-0.02 ± 0.051	-0.0115 ± 0.011	-0.0025 ± 0.057	-0.005 ± 0.088	0.03 ± 0.054	0.072 ± 0.042	-0.01 ± 0.1	-0.0045 ± 0.032	0.048 ± 0.013	-0.0115 ± 0.013	0.002 ± 0.011	0.0535 ± 0.012	0.0135 ± 0.044
KF3CT:SRB	-0.011 ± 0.018	-0.0235 ± 0.005	-0.007 ± 0.0071	-0.004 ± 0.0014	0.0055 ± 0.011	-0.009 ± 0.0071	-0.013 ± 0.0028	-0.007 ± 0.0071	-0.005 ± 0.0071	-0.0065 ± 0.0064	-0.008 ± 0.0014	0.005 ± 0.0071	-0.005 ± 0.0028	-0.003	-0.0185 ± 0.011	-0.0185 ± 0.0092	0.0015 ± 0.012	-0.002 ± 0.0071
3C:CD106/VCAM-1	-0.018 ± 0.017	-0.003 ± 0.011	0.002 ± 0.023	-0.0055 ± 0.021	0.0235 ± 0.015	0.0135 ± 0.00071	0.006 ± 0.011	0.015 ± 0.02	-0.0075 ± 0.04	-0.0265 ± 0.005	0.006 ± 0.0028	-0.025 ± 0.0014	-0.0145 ± 0.005	0.004 ± 0.0014	0.0105 ± 0.016	-0.002 ± 0.02	0.0015 ± 0.0064	0.005 ± 0.0057
HDF3CGF:CCL2/MCP-1	-0.022 ± 0.0042	-0.005 ± 0.011	-0.03 ± 0.017	-0.054 ± 0.013	-0.022 ± 0.048	0.013 ± 0.0028	0.0335 ± 0.019	0.0425 ± 0.0021	-0.0385 ± 0.021	-0.018 ± 0.051	0.049 ± 0.0071	-0.022 ± 0.047	-0.024 ± 0.04	0.017 ± 0.051	0 ± 0.016	0.005 ± 0.0071	0.0135 ± 0.016	-0.0085 ± 0.0092
BE3C:MMP-9	-0.0165 ± 0.011	-0.0165 ± 0.012	-0.0325 ± 0.0078	-0.0105 ± 0.015	0.0215 ± 0.035	0.0235 ± 0.033	0.0185 ± 0.044	0.0645 ± 0.067	-0.0105 ± 0.019	0.02 ± 0.023	-0.009 ± 0.02	0.0075 ± 0.025	0.0025 ± 0.018	0.0265 ± 0.012	-0.0115 ± 0.0078	-0.0035 ± 0.028	0.0385 ± 0.00071	0.0055 ± 0.026
lMphg:CD69	-0.013 ± 0.0042	-0.011 ± 0.014	-0.0315 ± 0.0092	-0.0525 ± 0.013	0.0175 ± 0.077	-0.044 ± 0.014	-0.069 ± 0.021	-0.0455 ± 0.054	0.0185 ± 0.032	-0.0175 ± 0.0021	0.0095 ± 0.019	0.0105 ± 0.059	-0.022 ± 0.025	0.0045 ± 0.029	-0.0565 ± 0.015	0 ± 0.054	-0.024 ± 0.098	-0.0115 ± 0.011
BE3C:PAI-I	0.016 ± 0.017	0.016 ± 0.016	-0.021 ± 0.0071	-0.02 ± 0.0057	0.015 ± 0.057	-0.0155 ± 0.028	0.002 ± 0.017	0.0115 ± 0.032	-0.0235 ± 0.025	-0.014 ± 0.038	-0.0175 ± 0.023	-0.029 ± 0.045	-0.0065 ± 0.057	0.017 ± 0.052	-0.013 ± 0.0042	-0.0105 ± 0.019	0.0065 ± 0.022	-0.0545 ± 0.049
KF3CT:CXCL9/MIG	-0.002 ± 0.0042	-0.0015 ± 0.011	-0.002 ± 0.0057	-0.0055 ± 0.0021	0.0085 ± 0.013	0.0025 ± 0.011	0.0105 ± 0.00071	0.0155 ± 0.023	-0.004 ± 0.016	-0.011 ± 0.011	-0.007 ± 0.0071	-0.007 ± 0.0071	-0.005 ± 0.017	-0.0095 ± 0.021	-0.0035 ± 0.0092	0.0065 ± 0.0078	0.017 ± 0.0099	0.0015 ± 0.005
HDF3CGF:CD54/ICAM-1	0.003 ± 0.028	0.0475 ± 0.028	0.039 ± 0.054	0.035 ± 0.033	0.0485 ± 0.046	-0.009 ± 0.0071	-0.01 ± 0.0028	-0.031 ± 0.017	0.009 ± 0.021	0.013 ± 0.0099	0.0035 ± 0.005	0.007 ± 0.016	0.0065 ± 0.005	-0.0045 ± 0.00071	-0.0095 ± 0.0092	0.0015 ± 0.00071	-0.0085 ± 0.0035	-0.024 ± 0.0085
3C:CCL2/MCP-1	-0.0055 ± 0.0021	0.031 ± 0.025	-0.0105 ± 0.00071	0.0005 ± 0.0021	0.0215 ± 0.019	-0.005 ± 0.016	0.001 ± 0.0071	0.0375 ± 0.018	-0.02 ± 0.061	-0.006 ± 0.05	0.0215 ± 0.03	-0.041 ± 0.048	-0.0145 ± 0.049	0.0435 ± 0.073	0.002 ± 0.016	-0.007 ± 0.023	0.01 ± 0.03	0.0045 ± 0.011
MyoF:CD106/VCAM-1	0.006 ± 0.0042	0.0075 ± 0.018	0.0025 ± 0.005	0.001	-0.001 ± 0.0057	-0.023 ± 0.017	0.0095 ± 0.0035	-0.001	-0.0065 ± 0.011	-0.017 ± 0.0071	0.0135 ± 0.015	-0.02 ± 0.013	-0.027 ± 0.016	0.0035 ± 0.016	-0.022 ± 0.016	0.0025 ± 0.005	0.0005 ± 0.019	-0.013 ± 0.011
CASM3C:CD141/Thrombomodulin	0.0015 ± 0.022	-0.0145 ± 0.0078	-0.0065 ± 0.016	-0.0135 ± 0.035	0.0105 ± 0.005	0 ± 0.018	-0.005 ± 0.02	0.0135 ± 0.029	-0.0005 ± 0.016	0 ± 0.081	-0.0145 ± 0.028	-0.05 ± 0.031	0.024 ± 0.0099	0.0245 ± 0.066	0.0045 ± 0.018	0.002 ± 0.0028	0.017 ± 0.0071	0 ± 0.0014
CASM3C:CCL2/MCP-1	-0.0225 ± 0.0078	0.002 ± 0.014	-0.0085 ± 0.005	-0.0125 ± 0.019	-0.0015 ± 0.015	-0.0255 ± 0.012	-0.0305 ± 0.005	0.027 ± 0.034	0.006	-0.0065 ± 0.012	0.0065 ± 0.016	0.0025 ± 0.012	-0.0025 ± 0.019	0.0055 ± 0.00071	-0.033 ± 0.037	-0.034 ± 0.027	0.021 ± 0.02	-0.0115 ± 0.012
lMphg:sIL-10	-0.053 ± 0.085	-0.0135 ± 0.03	-0.017 ± 0.013	-0.075 ± 0.025	-0.0845 ± 0.05	-0.116 ± 0.018	-0.04 ± 0.047	-0.187 ± 0.031	-0.0495 ± 0.096	-0.0605 ± 0.054	-0.019 ± 0.0014	-0.0045 ± 0.016	0.008 ± 0.0099	-0.042 ± 0.024	-0.0425 ± 0.011	-0.0615 ± 0.036	-0.058 ± 0.055	-0.0345 ± 0.032
CASM3C:IL-6	-0.033 ± 0.024	0.003 ± 0.055	-0.02 ± 0.028	-0.028 ± 0.027	0.014 ± 0.047	-0.0055 ± 0.019	-0.002 ± 0.025	0.0285 ± 0.084	-0.0125 ± 0.0035	0.0045 ± 0.023	0.0225 ± 0.021	-0.0205 ± 0.056	-0.025 ± 0.0071	-0.0045 ± 0.035	-0.0065 ± 0.047	-0.014 ± 0.027	0.0285 ± 0.00071	0.0015 ± 0.012
CASM3C:HLA-DR	-0.0125 ± 0.011	-0.0155 ± 0.0092	-0.019 ± 0.014	-0.022 ± 0.023	0.003 ± 0.054	-0.0205 ± 0.029	-0.0315 ± 0.023	-0.013 ± 0.04	-0.007 ± 0.0028	0.0435 ± 0.033	0.006 ± 0.024	0.015 ± 0.023	-0.013 ± 0.011	0.0365 ± 0.0021	-0.022 ± 0.018	-0.0385 ± 0.019	0.0135 ± 0.063	0.008 ± 0.0071

Reference: the supplement of paper PMC10331698
